The target in one assay is T1, FAK (Homo sapiens, UniProt Q05397).
T1 construct: purchased Carna Biosciences
Nature of the assay: Kinase panel profiling at 1 µmol/L (mobility shift assay, Carna). The assay is classed as biochemical. The conditions noted are these: 1 µmol/L of BTK inhibitor.

The next assay concerns the target FGFR4 (Homo sapiens, UniProt P22455). The assay is described as follows: Kinase enzyme activity assay (mobility shift assay, Carna). The conditions noted are these: for Percentage inhibition of kinase enzyme activity: FGFR4, 1 µmol/L of BTK inhibitor.
Another assay has as its target T2, NDR2 (Homo sapiens, UniProt Q9Y2H1).
T2 construct: purchased Carna Biosciences
Nature of the assay: Kinase panel profiling at 1 µmol/L (mobility shift assay, Carna). The assay is classed as biochemical. The conditions noted are these: 1 µmol/L of BTK inhibitor.

The target of another assay is T3, CK1γ1 (Homo sapiens, UniProt Q9HCP0).
T3 construct: purchased Carna Biosciences
The description is as above. The assay is classed as biochemical. The conditions noted are these: 1 µmol/L of BTK inhibitor.

In the next assay the target is T4, TNK1 (Homo sapiens, UniProt Q13470).
T4 construct: purchased Carna Biosciences
T4 sequence (Q13470 1-666): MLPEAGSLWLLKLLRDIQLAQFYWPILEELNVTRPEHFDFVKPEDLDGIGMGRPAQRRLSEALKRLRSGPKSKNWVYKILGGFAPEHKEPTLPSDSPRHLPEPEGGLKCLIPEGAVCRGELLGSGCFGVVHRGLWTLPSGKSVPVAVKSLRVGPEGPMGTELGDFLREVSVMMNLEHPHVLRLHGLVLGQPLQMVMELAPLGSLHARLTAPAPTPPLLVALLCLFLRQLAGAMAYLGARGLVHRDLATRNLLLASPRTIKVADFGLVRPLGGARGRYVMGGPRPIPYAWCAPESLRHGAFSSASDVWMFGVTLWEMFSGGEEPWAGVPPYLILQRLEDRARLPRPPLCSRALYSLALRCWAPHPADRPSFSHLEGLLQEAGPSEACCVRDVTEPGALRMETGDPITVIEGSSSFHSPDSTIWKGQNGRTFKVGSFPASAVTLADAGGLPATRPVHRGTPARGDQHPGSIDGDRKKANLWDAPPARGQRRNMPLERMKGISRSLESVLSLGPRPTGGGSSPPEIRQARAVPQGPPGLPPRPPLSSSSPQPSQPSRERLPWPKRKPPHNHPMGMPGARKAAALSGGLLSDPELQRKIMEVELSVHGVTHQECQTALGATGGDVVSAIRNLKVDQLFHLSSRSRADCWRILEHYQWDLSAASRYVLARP
Described as above. The class given is biochemical. The conditions noted are these: 1 µmol/L of BTK inhibitor.

The target in another assay is T5, CaMK2γ (Homo sapiens, UniProt Q13555).
T5 construct: purchased Carna Biosciences
The description is as above. The class given is biochemical. The conditions noted are these: 1 µmol/L of BTK inhibitor.

For the next assay, the target named is T6, MST3 (Homo sapiens, UniProt Q9Y6E0).
T6 construct: purchased Carna Biosciences
The description is as above. The class given is biochemical. The conditions noted are these: 1 µmol/L of BTK inhibitor.

The next assay deals with T7, PHKG2 (Homo sapiens, UniProt P15735).
T7 construct: purchased Carna Biosciences
T7 sequence (P15735 1-406): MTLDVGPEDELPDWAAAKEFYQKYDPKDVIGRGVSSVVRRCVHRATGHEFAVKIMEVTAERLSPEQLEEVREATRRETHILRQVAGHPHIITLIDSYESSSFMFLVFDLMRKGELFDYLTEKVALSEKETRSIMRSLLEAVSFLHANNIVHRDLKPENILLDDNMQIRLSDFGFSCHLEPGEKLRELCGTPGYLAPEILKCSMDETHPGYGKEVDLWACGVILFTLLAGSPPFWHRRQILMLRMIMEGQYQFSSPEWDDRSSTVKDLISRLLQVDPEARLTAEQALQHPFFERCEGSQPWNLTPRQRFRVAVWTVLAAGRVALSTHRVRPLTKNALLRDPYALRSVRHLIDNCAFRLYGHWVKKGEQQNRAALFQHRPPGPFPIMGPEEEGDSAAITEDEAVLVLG
The assay is described as above. The assay is classed as biochemical. The conditions noted are these: 1 µmol/L of BTK inhibitor.

The next assay has as its target T8, TSSK2 (Homo sapiens, UniProt Q96PF2).
T8 construct: purchased Carna Biosciences
T8 sequence (Q96PF2 1-358): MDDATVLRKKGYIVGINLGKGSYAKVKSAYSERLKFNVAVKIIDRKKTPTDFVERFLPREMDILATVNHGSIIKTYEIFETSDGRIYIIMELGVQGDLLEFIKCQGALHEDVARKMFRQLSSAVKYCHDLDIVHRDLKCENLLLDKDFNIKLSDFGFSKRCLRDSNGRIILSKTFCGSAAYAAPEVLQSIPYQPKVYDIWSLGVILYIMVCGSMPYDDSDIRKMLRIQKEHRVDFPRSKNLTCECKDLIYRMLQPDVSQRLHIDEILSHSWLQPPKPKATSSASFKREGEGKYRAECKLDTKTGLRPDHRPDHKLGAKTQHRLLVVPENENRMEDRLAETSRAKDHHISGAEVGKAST
The description is as above. The class given is biochemical. The conditions noted are these: 1 µmol/L of BTK inhibitor.

A further assay addresses T9, MRCKβ (Homo sapiens, UniProt Q9Y5S2).
T9 construct: purchased Carna Biosciences
Described as above. The assay is classed as biochemical. The conditions noted are these: 1 µmol/L of BTK inhibitor.

The next assay addresses T10, MINK (Homo sapiens, UniProt Q8N4C8).
T10 construct: purchased Carna Biosciences
The assay is described as above. The class given is biochemical. The conditions noted are these: 1 µmol/L of BTK inhibitor.

The next assay concerns the target T11, PKACγ (Homo sapiens, UniProt P22612).
T11 construct: purchased Carna Biosciences
The description is as above. The class given is biochemical. The conditions noted are these: 1 µmol/L of BTK inhibitor.

The next assay addresses T12, SGK3 (Homo sapiens, UniProt Q96BR1).
T12 construct: purchased Carna Biosciences
T12 sequence (Q96BR1 1-496): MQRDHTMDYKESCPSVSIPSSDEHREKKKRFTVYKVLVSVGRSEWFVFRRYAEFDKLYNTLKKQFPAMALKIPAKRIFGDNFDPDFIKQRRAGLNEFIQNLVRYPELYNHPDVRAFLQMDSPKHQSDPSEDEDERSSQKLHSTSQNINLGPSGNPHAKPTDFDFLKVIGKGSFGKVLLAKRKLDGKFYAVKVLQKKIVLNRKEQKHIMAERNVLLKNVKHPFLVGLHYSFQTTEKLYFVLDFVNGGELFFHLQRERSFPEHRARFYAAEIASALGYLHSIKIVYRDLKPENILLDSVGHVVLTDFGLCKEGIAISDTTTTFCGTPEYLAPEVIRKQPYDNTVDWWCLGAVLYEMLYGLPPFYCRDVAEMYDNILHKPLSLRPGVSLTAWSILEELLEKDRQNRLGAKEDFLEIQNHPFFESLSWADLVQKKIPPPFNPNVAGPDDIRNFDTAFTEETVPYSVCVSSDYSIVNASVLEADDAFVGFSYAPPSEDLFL
The assay is described as above. The class given is biochemical. The conditions noted are these: 1 µmol/L of BTK inhibitor.

T11 sequence (P22612 whole entry): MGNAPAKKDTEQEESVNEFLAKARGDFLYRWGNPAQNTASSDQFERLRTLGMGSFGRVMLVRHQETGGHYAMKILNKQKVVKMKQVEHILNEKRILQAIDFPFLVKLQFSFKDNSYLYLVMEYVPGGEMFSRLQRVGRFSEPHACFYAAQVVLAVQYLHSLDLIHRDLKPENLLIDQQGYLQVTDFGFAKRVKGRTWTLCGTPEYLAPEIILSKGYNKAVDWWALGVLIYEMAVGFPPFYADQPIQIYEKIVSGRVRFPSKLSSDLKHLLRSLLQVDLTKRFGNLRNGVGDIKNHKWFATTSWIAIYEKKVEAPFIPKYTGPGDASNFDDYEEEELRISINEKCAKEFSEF
Sequence of FGFR4 (P22455 22-802): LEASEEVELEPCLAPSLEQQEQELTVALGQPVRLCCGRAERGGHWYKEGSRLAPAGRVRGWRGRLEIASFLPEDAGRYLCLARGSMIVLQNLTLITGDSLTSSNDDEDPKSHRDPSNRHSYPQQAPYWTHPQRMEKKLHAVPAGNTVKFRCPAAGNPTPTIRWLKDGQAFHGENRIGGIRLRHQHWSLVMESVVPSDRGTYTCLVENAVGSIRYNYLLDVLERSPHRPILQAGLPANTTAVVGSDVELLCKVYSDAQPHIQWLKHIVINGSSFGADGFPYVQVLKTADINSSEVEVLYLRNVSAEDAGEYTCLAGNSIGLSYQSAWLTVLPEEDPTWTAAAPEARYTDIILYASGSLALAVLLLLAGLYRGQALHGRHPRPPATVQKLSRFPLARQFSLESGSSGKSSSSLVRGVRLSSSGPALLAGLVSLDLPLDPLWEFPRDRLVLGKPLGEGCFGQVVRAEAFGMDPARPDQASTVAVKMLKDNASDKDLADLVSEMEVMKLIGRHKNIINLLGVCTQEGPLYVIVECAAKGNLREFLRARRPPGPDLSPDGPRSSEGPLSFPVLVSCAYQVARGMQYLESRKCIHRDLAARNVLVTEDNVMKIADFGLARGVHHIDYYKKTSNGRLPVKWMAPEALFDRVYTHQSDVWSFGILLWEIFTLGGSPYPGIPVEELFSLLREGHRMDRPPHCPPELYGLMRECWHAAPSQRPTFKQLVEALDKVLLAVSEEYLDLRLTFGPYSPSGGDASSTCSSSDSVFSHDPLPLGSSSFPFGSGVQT
T9 sequence (Q9Y5S2 whole entry): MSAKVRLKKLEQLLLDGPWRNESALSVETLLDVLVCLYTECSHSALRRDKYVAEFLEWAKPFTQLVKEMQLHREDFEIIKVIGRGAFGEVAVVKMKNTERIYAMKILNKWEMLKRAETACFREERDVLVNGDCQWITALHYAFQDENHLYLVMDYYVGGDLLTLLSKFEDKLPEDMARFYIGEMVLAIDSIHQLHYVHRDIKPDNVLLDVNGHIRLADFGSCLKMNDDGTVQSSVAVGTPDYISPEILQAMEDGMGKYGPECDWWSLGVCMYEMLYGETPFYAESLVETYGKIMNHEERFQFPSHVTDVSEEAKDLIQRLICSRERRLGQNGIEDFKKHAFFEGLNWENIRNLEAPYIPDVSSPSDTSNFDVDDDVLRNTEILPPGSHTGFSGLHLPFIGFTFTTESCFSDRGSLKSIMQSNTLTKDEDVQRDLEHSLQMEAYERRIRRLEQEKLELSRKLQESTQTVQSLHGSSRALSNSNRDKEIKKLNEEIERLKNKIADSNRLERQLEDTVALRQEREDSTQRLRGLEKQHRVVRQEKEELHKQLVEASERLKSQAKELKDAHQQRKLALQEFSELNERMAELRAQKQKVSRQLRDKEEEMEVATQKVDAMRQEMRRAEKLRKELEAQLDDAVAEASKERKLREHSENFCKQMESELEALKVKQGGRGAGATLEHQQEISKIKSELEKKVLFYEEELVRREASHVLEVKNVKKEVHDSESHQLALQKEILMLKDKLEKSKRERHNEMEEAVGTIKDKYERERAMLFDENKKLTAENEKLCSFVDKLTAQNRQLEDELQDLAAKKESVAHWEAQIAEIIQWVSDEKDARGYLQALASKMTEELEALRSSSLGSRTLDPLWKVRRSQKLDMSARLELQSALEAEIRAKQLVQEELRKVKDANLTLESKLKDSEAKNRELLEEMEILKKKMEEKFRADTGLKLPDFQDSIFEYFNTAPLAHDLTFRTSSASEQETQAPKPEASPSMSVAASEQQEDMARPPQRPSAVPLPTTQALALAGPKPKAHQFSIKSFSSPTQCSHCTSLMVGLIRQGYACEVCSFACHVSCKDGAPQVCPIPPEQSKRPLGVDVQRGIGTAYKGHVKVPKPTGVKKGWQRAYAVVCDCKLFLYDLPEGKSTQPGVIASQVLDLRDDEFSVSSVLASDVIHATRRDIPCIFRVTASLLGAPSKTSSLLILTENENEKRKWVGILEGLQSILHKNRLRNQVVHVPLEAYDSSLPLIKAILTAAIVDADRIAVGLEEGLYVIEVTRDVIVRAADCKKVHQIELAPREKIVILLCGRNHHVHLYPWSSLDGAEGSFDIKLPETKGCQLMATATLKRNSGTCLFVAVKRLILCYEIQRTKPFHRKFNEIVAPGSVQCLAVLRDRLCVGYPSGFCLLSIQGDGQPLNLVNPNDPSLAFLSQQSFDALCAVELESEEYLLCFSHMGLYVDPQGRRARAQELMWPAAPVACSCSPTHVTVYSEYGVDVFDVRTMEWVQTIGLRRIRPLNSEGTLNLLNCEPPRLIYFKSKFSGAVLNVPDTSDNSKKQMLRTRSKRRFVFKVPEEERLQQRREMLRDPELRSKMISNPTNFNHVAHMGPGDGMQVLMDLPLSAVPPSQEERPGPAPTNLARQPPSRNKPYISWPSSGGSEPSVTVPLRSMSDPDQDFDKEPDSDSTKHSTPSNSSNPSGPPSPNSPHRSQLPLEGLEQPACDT
T3 sequence (Q9HCP0 whole entry): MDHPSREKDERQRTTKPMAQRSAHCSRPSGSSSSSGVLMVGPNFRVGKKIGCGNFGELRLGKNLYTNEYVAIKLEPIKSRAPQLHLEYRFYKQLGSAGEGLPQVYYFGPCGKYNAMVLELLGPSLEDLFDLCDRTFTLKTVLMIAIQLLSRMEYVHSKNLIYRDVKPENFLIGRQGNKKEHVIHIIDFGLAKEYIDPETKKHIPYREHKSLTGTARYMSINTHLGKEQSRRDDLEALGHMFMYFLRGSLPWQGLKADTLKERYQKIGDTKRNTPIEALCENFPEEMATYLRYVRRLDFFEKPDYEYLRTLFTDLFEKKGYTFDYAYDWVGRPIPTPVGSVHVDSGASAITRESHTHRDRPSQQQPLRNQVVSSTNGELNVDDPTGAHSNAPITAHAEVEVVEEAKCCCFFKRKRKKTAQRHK
T6 sequence (Q9Y6E0 whole entry): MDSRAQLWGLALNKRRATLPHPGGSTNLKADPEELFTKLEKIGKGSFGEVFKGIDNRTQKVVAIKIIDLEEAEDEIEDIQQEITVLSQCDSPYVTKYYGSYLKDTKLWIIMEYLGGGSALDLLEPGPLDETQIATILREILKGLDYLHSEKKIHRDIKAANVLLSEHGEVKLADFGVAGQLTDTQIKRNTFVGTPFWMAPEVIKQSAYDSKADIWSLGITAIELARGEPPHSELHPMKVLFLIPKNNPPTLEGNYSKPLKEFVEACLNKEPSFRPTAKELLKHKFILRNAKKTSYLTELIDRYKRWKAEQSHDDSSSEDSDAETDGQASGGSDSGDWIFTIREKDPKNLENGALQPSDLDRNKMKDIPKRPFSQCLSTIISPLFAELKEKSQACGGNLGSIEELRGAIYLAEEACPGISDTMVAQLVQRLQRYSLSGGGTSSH
T5 sequence (Q13555 whole entry): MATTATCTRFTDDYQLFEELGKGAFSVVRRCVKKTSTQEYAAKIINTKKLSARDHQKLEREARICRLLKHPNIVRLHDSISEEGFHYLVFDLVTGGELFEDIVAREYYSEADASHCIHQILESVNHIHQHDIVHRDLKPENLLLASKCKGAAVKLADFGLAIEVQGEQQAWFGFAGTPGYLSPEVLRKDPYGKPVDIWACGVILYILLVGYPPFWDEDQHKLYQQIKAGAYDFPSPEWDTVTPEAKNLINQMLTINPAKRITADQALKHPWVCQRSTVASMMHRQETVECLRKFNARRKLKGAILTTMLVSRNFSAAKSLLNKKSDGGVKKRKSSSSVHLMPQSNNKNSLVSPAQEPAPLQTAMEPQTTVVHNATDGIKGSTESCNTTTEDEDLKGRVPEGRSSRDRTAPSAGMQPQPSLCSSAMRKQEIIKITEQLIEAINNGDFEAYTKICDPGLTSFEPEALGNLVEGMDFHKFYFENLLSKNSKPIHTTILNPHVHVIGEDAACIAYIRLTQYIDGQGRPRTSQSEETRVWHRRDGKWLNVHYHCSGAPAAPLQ
T2 sequence (Q9Y2H1 whole entry): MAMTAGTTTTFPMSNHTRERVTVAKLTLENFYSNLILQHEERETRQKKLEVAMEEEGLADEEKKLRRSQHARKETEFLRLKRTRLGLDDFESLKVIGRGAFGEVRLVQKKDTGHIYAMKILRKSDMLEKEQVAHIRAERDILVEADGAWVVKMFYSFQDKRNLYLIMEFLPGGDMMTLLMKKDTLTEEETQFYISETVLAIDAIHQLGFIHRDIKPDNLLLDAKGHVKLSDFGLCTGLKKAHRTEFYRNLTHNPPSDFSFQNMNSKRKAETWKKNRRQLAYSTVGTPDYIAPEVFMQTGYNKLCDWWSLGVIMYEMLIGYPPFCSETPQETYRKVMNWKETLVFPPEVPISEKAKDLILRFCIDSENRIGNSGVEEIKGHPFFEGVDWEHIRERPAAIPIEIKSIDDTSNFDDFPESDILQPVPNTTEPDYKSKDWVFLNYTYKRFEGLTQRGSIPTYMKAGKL

`C=CC(=O)N1CCC([C@@H]2CCNc3c(C(N)=O)c(-c4ccc(Oc5ccccc5)cc4)nn32)CC1` [zanubrutinib]: the “Percentage inhibition of kinase enzyme activity” value (shortened to “Percentage inhibition”) stood at 0.0146% at FAK, 0.81% at FGFR4 and 0.50% on NDR2.

As to `CC#CC(=O)N1CCC[C@H]1c1nc(-c2ccc(C(=O)Nc3ccccn3)cc2)c2c(N)nccn12` [acalabrutinib], the “Percentage inhibition” value on CK1γ1 is given as 0.33%; on TNK1, -1.80%; on CaMK2γ, -1.85%; on MST3 it was -2.52%; at FAK, -1.39%; on PHKG2, 0.00605%. Further, the “Percentage inhibition” value is recorded as -3.11% on TSSK2; -8.97% at FGFR4; -15.91% at MRCKβ; -1.13% on MINK; 1.68% on PKACγ; -6.41% at NDR2. At SGK3, the “Percentage inhibition” value is -11.85%.

Consider `COc1ccc(F)cc1C(=O)NCc1ccc(-c2nn([C@@H](C)C(F)(F)F)c(N)c2C(N)=O)cc1` [pirtobrutinib], for which the “Percentage inhibition” value is 5.92% on CK1γ1; 3.07% on TNK1; -1.71% at CaMK2γ; 0.67% at MST3; 0.91% on FAK; 7.27% at PHKG2. Moreover, the “Percentage inhibition” value is -11.71% on TSSK2; 1.27% on FGFR4; 0.61% on MRCKβ; -0.79% on MINK; 1.36% on PKACγ; -4.16% at NDR2. Also, on SGK3, the “Percentage inhibition” value was -2.68%.

As to `O=C(c1ccc(Oc2ccccc2)cc1Cl)c1c[nH]c2ncnc(N[C@@H]3CC[C@@H](CO)OC3)c12` [nemtabrutinib], the “Percentage inhibition” value on CK1γ1 is 0.57%; on TNK1, 75.62%; on CaMK2γ, 1.06%; on MST3, 60.10%; at FAK, 100.03%; on PHKG2, 5.39%. Also, the “Percentage inhibition” value is -0.84% at TSSK2; 1.97% on FGFR4; -5.25% on MRCKβ; 46.67% on MINK; 11.12% on PKACγ; -0.25% at NDR2. For the same compound, the “Percentage inhibition” value at SGK3 is -3.28%. At FGFR4, the IC50 worked out at 1400 nM.

On to `C=CC(=O)N1CCC[C@@H](n2nc(-c3ccc(Oc4ccccc4)cc3)c3c(N)ncnc32)C1` [ibrutinib], for which the “Percentage inhibition” value on CK1γ1 is 3.68%; at TNK1, 6.17%; at CaMK2γ it was -1.83%; at MST3, 7.79%; at FAK, 5.04%; at PHKG2 it was 0.82%. Also, the “Percentage inhibition” value at TSSK2 is recorded as -3.91%; on FGFR4, 36.91%; at MRCKβ, -7.55%; at MINK, -6.41%; at PKACγ, 4.90%; at NDR2 it was 3.47%. The “Percentage inhibition” value on SGK3 came out at 0.58%.

(Values after publication PMC12586182 (Frontiers in Oncology, 2025).)
